Laboratory results taken from ChEMBL document CHEMBL1201862, “PubChem BioAssay data set” (2004).
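1) Cells in 96-well plates. 2) Compound, 48 h, 5 concentrations. 3) Linear interpolation between surrounding doses. 4) Unreached endpoint = highest concentration. At the GI50, growth is halved.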 Calls of active or inactive are those of the source. No stated cut-off is given here; in the data, active = GI50 up to about 1.1 µM and inactive = higher.

Tests used:
Experiment in all cases: inhibition of tumour cell growth, NCI panel, 48 h
[1] = system: NCI-H23
[2] = system: SW-620
[3] = system: RXF 393
[4] = system: U-251
[5] = system: UACC-257
[6] = system: K562
[7] = system: EKVX
[8] = system: KM12
[9] = system: SK-MEL-5
[10] = system: BT-549
[11] = system: 786-0
[12] = system: MOLT-4
[13] = system: Malme-3M
[14] = system: T47D
[15] = system: HCC 2998
[16] = system: MDA-N
[17] = system: MCF7
[18] = system: LOX IMVI
[19] = system: OVCAR-4
[20] = system: COLO 205
[21] = system: UO-31
[22] = system: PC-3
[23] = system: OVCAR-5
[24] = system: HCT-116
[25] = system: OVCAR-8
[26] = system: NCI/ADR-RES
[27] = system: A549
[28] = system: NCI-H522
[29] = system: SF-539
[30] = system: M14
[31] = system: SNB-75
[32] = system: CAKI-1
[33] = system: MDA-MB-231
[34] = system: SK-MEL-28
[35] = system: DU-145
[36] = system: Hs-578T
[37] = system: HL-60
[38] = system: HOP-62
[39] = system: HT-29
[40] = system: UACC-62
[41] = system: CCRF-CEM
[42] = system: SK-MEL-2
[43] = system: SR
[44] = system: SF-295
[45] = system: NCI-H460
[46] = system: TK-10
[47] = system: MDA-MB-435
[48] = system: ACHN
[49] = system: OVCAR-3
[50] = system: IGROV-1
[51] = system: HCT-15
[52] = system: HOP-92
[53] = system: A498
[54] = system: NCI-H226
[55] = system: SF-268
[56] = system: RPMI-8226
[57] = system: SNB-19
[58] = system: SN12C
[59] = system: SK-OV-3

SMILES: CC(C)C(OC(=O)c1ccc(NCc2cc(O)ccc2O)cc1)C(C)C
- GI50 [1]: 1890 nM (inactive)
- GI50 [2]: 1960 nM (inactive)
- GI50 [3]: 479 nM (active)
- GI50 [4]: 1140 nM (inactive)
- GI50 [5]: 1390 nM (inactive)
- GI50 [6]: 1290 nM (inactive)
- GI50 [7]: 1810 nM (inactive)
- GI50 [8]: 2600 nM (inactive)
- GI50 [9]: 2200 nM (inactive)
- GI50 [10]: 547 nM (active)
- GI50 [11]: 1140 nM (inactive)
- GI50 [12]: 243 nM (active)
- GI50 [13]: 1770 nM (inactive)
- GI50 [14]: 871 nM (active)
- GI50 [15]: 2960 nM (inactive)
- GI50 [16]: 2390 nM (inactive)
- GI50 [17]: 2870 nM (inactive)
- GI50 [18]: 776 nM (active)
- GI50 [19]: 1470 nM (inactive)
- GI50 [20]: 865 nM (active)
- GI50 [21]: 1170 nM (inactive)
- GI50 [22]: 1320 nM (inactive)
- GI50 [23]: 2090 nM (inactive)
- GI50 [24]: 2760 nM (inactive)
- GI50 [25]: 1400 nM (inactive)
- GI50 [26]: 1420 nM (inactive)
- GI50 [27]: 5770 nM (inactive)
- GI50 [28]: 160 nM (active)
- GI50 [29]: 1090 nM (active)
- GI50 [30]: 2280 nM (inactive)
- GI50 [31]: 746 nM (active)
- GI50 [32]: 218 nM (active)
- GI50 [33]: 2070 nM (inactive)
- GI50 [34]: 1450 nM (inactive)
- GI50 [35]: 7010 nM (inactive)
- GI50 [36]: 1020 nM (active)
- GI50 [37]: 135 nM (active)
- GI50 [38]: 7940 nM (inactive)
- GI50 [39]: 3340 nM (inactive)
- GI50 [40]: 1290 nM (inactive)
- GI50 [41]: 102 nM (active)
- GI50 [42]: 2350 nM (inactive)
- GI50 [43]: 617 nM (active)
- GI50 [44]: 3740 nM (inactive)
- GI50 [45]: 3500 nM (inactive)
- GI50 [46]: 1660 nM (inactive)
- GI50 [47]: 1290 nM (inactive)
- GI50 [48]: 1020 nM (active)
- GI50 [49]: 1360 nM (inactive)
- GI50 [50]: 855 nM (active)
- GI50 [51]: 317 nM
- GI50 [52]: 424 nM (active)
- GI50 [53]: 2250 nM (inactive)
- GI50 [54]: 1290 nM (inactive)
- GI50 [55]: 1870 nM (inactive)
- GI50 [56]: 194 nM (active)
- GI50 [57]: 1290 nM (inactive)
- GI50 [58]: 2420 nM (inactive)

SMILES: CC#CC(O)(C(=O)OC1CC2CCC(C1)N2C)C1CCCC1 (stereo not given)
- GI50 [1]: > 100000 nM (inactive)
- GI50 [2]: > 100000 nM (inactive)
- GI50 [3]: > 100000 nM (inactive)
- GI50 [4]: > 100000 nM (inactive)
- GI50 [5]: > 100000 nM (inactive)
- GI50 [6]: > 100000 nM (inactive)
- GI50 [7]: > 100000 nM (inactive)
- GI50 [8]: > 100000 nM (inactive)
- GI50 [9]: > 100000 nM (inactive)
- GI50 [10]: > 100000 nM (inactive)
- GI50 [11]: > 100000 nM (inactive)
- GI50 [12]: > 100000 nM (inactive)
- GI50 [14]: > 100000 nM (inactive)
- GI50 [15]: > 100000 nM (inactive)
- GI50 [16]: > 100000 nM (inactive)
- GI50 [17]: > 100000 nM (inactive)
- GI50 [18]: > 100000 nM (inactive)
- GI50 [19]: > 100000 nM (inactive)
- GI50 [20]: > 100000 nM (inactive)
- GI50 [21]: > 100000 nM (inactive)
- GI50 [22]: > 100000 nM (inactive)
- GI50 [23]: > 100000 nM (inactive)
- GI50 [24]: > 100000 nM (inactive)
- GI50 [25]: > 100000 nM (inactive)
- GI50 [26]: > 100000 nM (inactive)
- GI50 [27]: > 100000 nM (inactive)
- GI50 [29]: > 100000 nM (inactive)
- GI50 [30]: > 100000 nM (inactive)
- GI50 [31]: > 100000 nM (inactive)
- GI50 [32]: > 100000 nM (inactive)
- GI50 [33]: > 100000 nM (inactive)
- GI50 [34]: > 100000 nM (inactive)
- GI50 [35]: > 100000 nM (inactive)
- GI50 [36]: > 100000 nM (inactive)
- GI50 [37]: > 100000 nM (inactive)
- GI50 [59]: > 100000 nM (inactive)
- GI50 [38]: > 100000 nM (inactive)
- GI50 [39]: > 100000 nM (inactive)
- GI50 [40]: > 100000 nM (inactive)
- GI50 [41]: > 100000 nM (inactive)
- GI50 [42]: > 100000 nM (inactive)
- GI50 [43]: > 100000 nM (inactive)
- GI50 [44]: > 100000 nM (inactive)
- GI50 [45]: > 100000 nM (inactive)
- GI50 [46]: > 100000 nM (inactive)
- GI50 [47]: > 100000 nM (inactive)
- GI50 [48]: > 100000 nM (inactive)
- GI50 [49]: > 100000 nM (inactive)
- GI50 [50]: > 100000 nM (inactive)
- GI50 [51]: > 100000 nM
- GI50 [52]: > 100000 nM (inactive)
- GI50 [53]: > 100000 nM (inactive)
- GI50 [54]: > 100000 nM (inactive)
- GI50 [55]: > 100000 nM (inactive)
- GI50 [56]: > 100000 nM (inactive)
- GI50 [57]: > 100000 nM (inactive)
- GI50 [58]: > 100000 nM (inactive)

SMILES: CC(C)(C)NC(=S)N/N=C/c1ccccn1
- GI50 [2]: < 11.3 nM (active)
- GI50 [3]: < 10 nM (active)
- GI50 [4]: 357 nM (active)
- GI50 [5]: < 46.7 nM (active)
- GI50 [6]: < 10 nM (active)
- GI50 [7]: 59.6 nM (active)
- GI50 [8]: 1940 nM (inactive)
- GI50 [9]: 409 nM (active)
- GI50 [10]: 18300 nM (inactive)
- GI50 [11]: 54.5 nM (active)
- GI50 [12]: < 10 nM (active)
- GI50 [13]: 3720 nM (inactive)
- GI50 [14]: < 10 nM (active)
- GI50 [15]: 6840 nM (inactive)
- GI50 [16]: 1580 nM (inactive)
- GI50 [17]: < 10 nM (active)
- GI50 [20]: < 10 nM (active)
- GI50 [21]: 259 nM (active)
- GI50 [22]: < 16.4 nM (active)
- GI50 [23]: 361 nM (active)
- GI50 [24]: < 10 nM (active)
- GI50 [25]: 612 nM (active)
- GI50 [26]: 34.3 nM (active)
- GI50 [27]: 2130 nM (inactive)
- GI50 [29]: 3280 nM (inactive)
- GI50 [30]: 85.1 nM (active)
- GI50 [31]: > 100000 nM (inactive)
- GI50 [32]: < 11.8 nM (active)
- GI50 [33]: 223 nM (active)
- GI50 [34]: 3400 nM (inactive)
- GI50 [35]: 2040 nM (inactive)
- GI50 [36]: > 32200 nM (inactive)
- GI50 [37]: < 10 nM (active)
- GI50 [59]: 1960 nM (inactive)
- GI50 [38]: 396 nM (active)
- GI50 [39]: < 45.2 nM (active)
- GI50 [40]: 578 nM (active)
- GI50 [41]: < 10 nM (active)
- GI50 [42]: 724 nM (active)
- GI50 [43]: < 10 nM (active)
- GI50 [44]: 2840 nM (inactive)
- GI50 [45]: 968 nM (active)
- GI50 [46]: 14100 nM (inactive)
- GI50 [47]: 3610 nM (inactive)
- GI50 [48]: < 23.7 nM (active)
- GI50 [49]: < 15.5 nM (active)
- GI50 [50]: 28.1 nM (active)
- GI50 [51]: < 15.9 nM
- GI50 [52]: 2650 nM (inactive)
- GI50 [53]: 2730 nM (inactive)
- GI50 [54]: 1000 nM (active)
- GI50 [55]: 863 nM (active)
- GI50 [56]: < 10.6 nM (active)
- GI50 [57]: 7360 nM (inactive)
- GI50 [58]: 3160 nM (inactive)
